Patent US20210045986A1, “COMPOSITION FOR PREVENTION OR TREATMENT OF SKIN INFECTION” (CARESIDE CO., LTD., priority 2018, published 2021)

Experiment: Precipitate generation prevention experiment of liquid formulation under accelerated storage
Type: physicochemical
Design: key: O: Generated; X: Non-Generated
Details: for Whether or not a precipitate is generated: 1.0% malic acid, 0.3% sodium borate; for Result: whether or not a precipitate is generated: chlorhexidine gluconate 0.1, terbinafine hydrochloride 0.1, ethanol 59 wt %
Excerpt: As described above, most liquid medicines include excipients including chloride ions, and the composition of the present invention in combination with terbinafine hydrochloride may also cause precipitation. However, it may further include malic acid and sodium borate to prevent the generation of precipitates of terbinafine hydrochloride. Hereinafter, a description will be given of the precipitate generation experiments of terbinafine hydrochloride.
First, a liquid formulation containing terbinafine hydrochloride, chlorhexidine gluconate and ciclopirox olamine is prepared as shown in the following [Table 3]. Malic acid or polycarboxylic acid other than malic acid is added to the prepared liquid formulation, and the presence or absence of a precipitate is observed.
First, malic acid, citric acid, oxalic acid and tartaric acid are prepared as a polycarboxylic acid such as malic acid. To the liquid formulation prepared in the above [Table 3], polycarboxylic acid was added in 0.1, 0.3, 0.5, 0.7, 1.0, 2.0, 3.0, 4.0, 5.0 (w/v %), respectively, and then chlorhexidine gluconate is adjusted to a stable pH of 5.0 using a pH adjusting agent. And, the liquid formulations were stored under accelerated conditions of 40±2° C. and relative humidity of 75±5% to observe the presence or absence of precipitates. […]
Next, after adding 1.0% of malic acid and 0.3% of sodium borate, an experiment is performed to determine whether precipitates are generated by adjusting the content of chlorhexidine gluconate, terbinafine hydrochloride, and ciclopirox olamine. The experimental results are shown in the following [Table 6] and [Table 7], and experiments were performed on whether or not precipitates of the liquid formulations prepared without adding malic acid and sodium borate are generated were shown in [Table 8].

[1] = concentration of the ingredient 0.1 %
[2] = concentration of the ingredient 0.3 %
[3] = concentration of the ingredient 0.5 %
[4] = concentration of the ingredient 1.0 %
[5] = concentration of the ingredient 2.0 %
[6] = concentration of the ingredient 3.0 %
[7] = concentration of the ingredient 4.0 %
[8] = concentration of the ingredient 5.0 %
[9] = concentration of the ingredient 6.0 %

Compound | Whether or not a precipitate is generated [1] | Whether or not a precipitate is generated [2] | Whether or not a precipitate is generated [3] | Whether or not a precipitate is generated [4] | Whether or not a precipitate is generated [5] | Whether or not a precipitate is generated [6] | Whether or not a precipitate is generated [7] | Whether or not a precipitate is generated [8] | Whether or not a precipitate is generated [9] | also measured
N=C(NCCCCCCNC(=N)NC(=N)Nc1ccc(Cl)cc1)NC(=N)Nc1ccc(Cl)cc1 [Chlorhexidine Gluconate, chlorhexidine gluconate] | X | X | X | X | X | X | X | O | O | 
Cc1cc(C2CCCCC2)n(O)c(=O)c1 [Ciclopirox Olamine, 2(1H)-Pyridinone, 6-cyclohexyl-1-hydroxy-4-methyl-compound with 2-aminoethanol (1:1)] |  |  |  |  |  |  |  |  |  | Result: whether or not a precipitate is generated (ciclopirox olamine 0.1 wt %, malic acid and sodium borate, pH 5.3~5.7): X; Result: whether or not a precipitate is generated (ciclopirox olamine 0.1 wt %, without malic acid and sodium borate, pH adjustment x): O; Result: whether or not a precipitate is generated (ciclopirox olamine 0.2 wt %, without malic acid and sodium borate, pH adjustment x): O; Result: whether or not a precipitate is generated (ciclopirox olamine 0.3 wt %, malic acid and sodium borate, pH 5.3~5.7): X; Result: whether or not a precipitate is generated (ciclopirox olamine 0.3 wt %, without malic acid and sodium borate, pH adjustment x): O; Result: whether or not a precipitate is generated (ciclopirox olamine 0.4 wt %, without malic acid and sodium borate, pH adjustment x): O; Result: whether or not a precipitate is generated (ciclopirox olamine 0.5 wt %, malic acid and sodium borate, pH 5.3~5.7): X; Result: whether or not a precipitate is generated (ciclopirox olamine 0.5 wt %, without malic acid and sodium borate, pH adjustment x): O; Result: whether or not a precipitate is generated (ciclopirox olamine 0.6 wt %, without malic acid and sodium borate, pH adjustment x): O; Result: whether or not a precipitate is generated (ciclopirox olamine 0.7 wt %, without malic acid and sodium borate, pH adjustment x): O; Result: whether or not a precipitate is generated (ciclopirox olamine 0.8 wt %, without malic acid and sodium borate, pH adjustment x): O; Result: whether or not a precipitate is generated (ciclopirox olamine 0.9 wt %, without malic acid and sodium borate, pH adjustment x): O; Result: whether or not a precipitate is generated (ciclopirox olamine 1.0 wt %, malic acid and sodium borate, pH 5.3~5.7): X; Result: whether or not a precipitate is generated (ciclopirox olamine 2.0 wt %, malic acid and sodium borate, pH 5.3~5.7): X; Result: whether or not a precipitate is generated (ciclopirox olamine 3.0 wt %, malic acid and sodium borate, pH 5.3~5.7): X; Result: whether or not a precipitate is generated (ciclopirox olamine 4.0 wt %, malic acid and sodium borate, pH 5.3~5.7): X; Result: whether or not a precipitate is generated (ciclopirox olamine 5.0 wt %, malic acid and sodium borate, pH 5.3~5.7): X; Result: whether or not a precipitate is generated (ciclopirox olamine 6.0 wt %, malic acid and sodium borate, pH 5.3~5.7): X
CN(C/C=C/C#CC(C)(C)C)Cc1cccc2ccccc12.Cl [Terbinafine hydrochloride, [(2E)-6,6-dimethylhept-2-en-4-yn-1-yl] (methyl) (naphthalen-1-ylmethyl)aminehydrochloride] | X | X | X | X | X | O | O | O | O | 
